Assay results reported in patent US9783545B2, “Pyrazolopyridazines and methods for treating retinal-degenerative diseases and hearing loss associated with usher syndrome” (Usher III Initiative, Inc., priority 2012, dated 2017).
pEC50, pIC50: −log10 of the molar value.

Experiments:
N48K Clarin-1 [1] = molecular target: T1, N48K Clarin-1 (Homo sapiens, UniProt P58418, N48K); test: Restoration of expression of N48K Clarin-1, 24 hour incubation (high content imaging of HA-tagged N48K Clarin-1); assay type: cell-based; conditions: HEK293-Clarin-1 N48K-HA D9 cell line, 24 hr incubation with compound; read-out: IC50 (the source's name)
T1 construct: expressed in transfected cells
T1 sequence (P58418 1-232 N48K): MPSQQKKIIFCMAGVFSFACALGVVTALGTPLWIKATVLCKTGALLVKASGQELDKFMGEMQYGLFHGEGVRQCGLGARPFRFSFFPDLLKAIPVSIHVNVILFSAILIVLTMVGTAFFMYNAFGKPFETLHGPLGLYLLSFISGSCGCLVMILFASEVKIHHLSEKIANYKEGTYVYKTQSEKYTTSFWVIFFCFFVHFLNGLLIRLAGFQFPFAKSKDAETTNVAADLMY
Method: Assay Method Showing Activity of Compounds of the Invention that Restore Expression of N48K Clarin-1 (24 hour incubation)
(§1) Clarin-1 is the protein encoded by the gene mutated in Usher III Syndrome (Adato et al., 2002). The most prevalent mutation in Clarin-1 in North America is N48K, which is reported to cause loss of glycosylation and a trafficking defect (Tian et al., 2009). […] Thus it is believed that restoring the trafficking of N48K Clarin-1 to the cell surface provides an avenue of intervention for Usher III Sydrome.
(§2) In a typical experiment, these cells were seeded on collagen-coated 96-well plates at a cell density of 20,000 cells per well in Dulbecco's Modified Eagle Medium (DMEM) contain 10% fetal bovine serum in a humidified incubator at 37° C., 5% CO2. After an overnight incubation, compounds were added for a 24 hr incubation in DMEM medium contain 10% fetal bovine serum in a humidified incubator at 37° C., 5% CO2. As a negative control, DMSO was used at 0.25% final concentrations. Compounds were typically tested in triplicate fashion. After the 24 hr incubation with compounds, the cells were fixed by the addition of 10% buffered formalin to the wells to achieve a final concentration of 4% formalin. After a 20 min fixation at room temperature, wells were washed three times with phosphate-buffered saline (PBS) containing Triton X-100 (0.02 phosphate, 150 mM NaCl, 0.1% Triton X-100).
(§3) The HA-tagged N48K Clarin-1 was detected with an antibody against the HA tag (HA.11 Clone 16B12 Monoclonal antibody, Covance #MMS-101P) at a dilution of 1:1000 in PBS containing Triton X-100. After a 90 min incubation, wells were washed three times with PBS containing Triton X-100, and a secondary antibody (Goat anti-mouse IgG-Cy3 (1.5 mg/ml), Jackson IR Europe #115165003) was added to the wells at a dilution of 1:250 in PBS containing Triton X-100 for 45 min. Wells were subsequently washed three times with PBS containing Triton X-100, and a final staining for nuclei was performed by the addition of DAPI (4′,6-diamidino-2-phenylindole) at a dilution of 1:10,000. The imaging of the stained cells was performed on an InCell 1000 High Content Imager (GE Healthcare), reading out the Cy3 channel for N48K Clarin-1 and the DAPI channel for nuclei. The images were analyzed and quantitated using a specific algorithm. This algorithm measured the HA-Clarin-1 staining for each cell based on the additional nuclear segmentation of the DAPI signal (FIG. 1). This algorithm measured the intensity per cell, and thus it is less sensitive for variation in cell number. Per well, approximately 2,000 cells were measured to achieve an average density per cell measurement. FIG. 1 illustrates high content analysis. DAPI-stained nuclei are used to perform segmentation of the image into individual cells. The density observed in the N48K Clarin-1 channel (Cy3) is then calculated per cell averaged over a field.

N48K Clarin-1 [2] = molecular target: T1, N48K Clarin-1; test: Restoration of expression of N48K Clarin-1, 2 hour incubation then 22 hr fresh medium (high content imaging of HA-tagged N48K Clarin-1); assay type: cell-based; conditions: HEK293-Clarin-1 N48K-HA D9 cell line, 2 hr incubation with compound, then 22 hr in fresh medium
Method: An Assay Method Showing Activity of Compounds of the Invention that Restore Expression of N48K Clarin-1(2 hour incubation)
as §1
as §2, with “for a 2 hr incubation” for “for a 24 hr incubation”, “After the 2 hr incubation” for “After the 24 hr incubation”, “cells were incubated in fresh medium for 22 hr. The cells were then fixed by” for “cells were fixed by”
as §3, with “images are” for “images were”, “measurement.” for “measurement. FIG. 1 illustrates high content analysis. DAPI-stained nuclei are used to perform segmentation of the image into individual cells. The density observed in the N48K Clarin-1 channel (Cy3) is then calculated per cell averaged over a field.”

pEC50 (N48K Clarin-1 [1]) | pIC50 (N48K Clarin-1 [2]) | Compound
≥ 5.70 | ≥ 5.40 | FCCn1nc(-c2ccccc2)c2c(Cl)c(-c3ccccc3)nnc21 [IIl, 4-chloro-1-(2-fluoroethyl)-3,5-diphenyl-pyrazolo[3,4-c]pyridazine]
≥ 5.70 | ≥ 5.40 | Fc1cccc(-c2nn(CCn3ccnc3)c3nnc(-c4ccccc4)c(Cl)c23)c1 [IIs, 4-chloro-3-(3-fluorophenyl)-1-(2-imidazol-1-ylethyl)-5-phenyl-pyrazolo[3,4-c]pyridazine]
≥ 5.70 | ≥ 5.40 | Clc1c(-c2ccccc2)nnc2c1c(-c1ccccc1)nn2Cc1cocn1 [IIh, 4-[(4-chloro-3,5-diphenyl-pyrazolo[3,4-c]pyridazin-1-yl)methyl]oxazole]
≥ 5.70 | ≥ 5.40 | CN1CCN(CCn2nc(-c3ccc4c(c3)CCO4)c3c(Cl)c(-c4ccccc4)nnc32)CC1 [Il, 4-chloro-3-(2,3-dihydrobenzofuran-5-yl)-1-(2-(4-methylpiperazin-1-yl)ethyl)-5-phenyl-1H-pyrazolo[3,4-c]pyridazine]
≥ 5.70 | ≥ 5.40 | CC1(Cn2nc(-c3ccccc3)c3c(Cl)c(-c4ccccc4)nnc32)COC1 [IIf, 4-chloro-1-[(3-methyloxetan-3-yl)methyl]-3,5-diphenyl-pyrazolo[3,4-c]pyridazine]
≥ 5.70 | ≥ 5.40 | CS(=O)(=O)CCn1nc(-c2ccccc2)c2c(Cl)c(-c3ccccc3)nnc21 [IIq, 4-chloro-1-(2-methylsulfonylethyl)-3,5-diphenyl-pyrazolo[3,4-c]pyridazine]
≥ 5.70 | 5.10 to 5.40 | Cn1cncc1Cn1nc(-c2ccccc2)c2c(Cl)c(-c3ccccc3)nnc21 [IIa, 4-chloro-1-[(3-methylimidazol-4-yl)methyl]-3,5-diphenyl-pyrazolo[3,4-c]pyridazine]
≥ 5.70 | ≥ 5.40 | Cn1cc(Cn2nc(-c3ccccc3)c3c(Cl)c(-c4ccccc4)nnc32)cn1 [IIg, 4-chloro-1-[(1-methylpyrazol-4-yl)methyl]-3,5-diphenyl-pyrazolo[3,4-c]pyridazine]
≥ 5.70 | ≥ 5.40 | COC/C=C/c1nn(CCN2CCN(C)CC2)c2nnc(-c3ccccc3)c(Cl)c12 [Ii, (E)-4-chloro-3-(3-methoxyprop-1-en-1-yl)-1-(2-(4-methylpiperazin-1-yl)ethyl)-5-phenyl-1H-pyrazolo[3,4-c]pyridazine]
≥ 5.70 | ≥ 5.40 | O=C1CCCN1CCn1nc(-c2ccccc2)c2c(Cl)c(-c3ccccc3)nnc21 [IIb, 1-[2-(4-chloro-3,5-diphenyl-pyrazolo[3,4-c]pyridazin-1-yl)ethyl]pyrrolidin-2-one]
≥ 5.70 | ≥ 5.40 | Clc1c(-c2ccccc2)nnc2c1c(-c1ccccc1)nn2CCn1ccnc1 [IIc, 4-chloro-1-(2-imidazol-1-ylethyl)-3,5-diphenyl-pyrazolo[3,4-c]pyridazine]
≥ 5.70 | 5.10 to 5.40 | CN1CCN(CCn2nc(-c3cnn(C)c3)c3c(Cl)c(-c4ccccc4)nnc32)CC1 [Ic, 4-chloro-3-(1-methyl-1H-pyrazol-4-yl)-1-(2-(4-methylpiperazin-1-yl)ethyl)-5-phenyl-1H-pyrazolo[3,4-c]pyridazine]
≥ 5.70 | ≥ 5.40 | Clc1c(-c2ccccc2)nnc2c1c(-c1ccccc1)nn2C[C@H]1CCCO1 [IIj, 4-chloro-3,5-diphenyl-1-[[(2R)-tetrahydrofuran-2-yl]methyl]pyrazolo[3,4-c]pyridazine]
≥ 5.70 | ≥ 5.40 | CN1CCN(CCn2nc(-c3cccn3C)c3c(Cl)c(-c4ccccc4)nnc32)CC1 [Ik, 4-chloro-3-(1-methyl-1H-pyrrol-2-yl)-1-(2-(4-methylpiperazin-1-yl)ethyl)-5-phenyl-1H-pyrazolo[3,4-c]pyridazine]
≥ 5.70 | ≥ 5.40 | Clc1c(-c2ccccc2)nnc2c1c(-c1ccccc1)nn2Cc1cccnc1 [IIn, 4-chloro-3,5-diphenyl-1-(3-pyridylmethyl)pyrazolo[3,4-c]pyridazine]

Compound | pEC50 (N48K Clarin-1 [1]) | pIC50 (N48K Clarin-1 [2])
Cc1nn([C@@H]2C[C@H]3CC[C@@H](C2)N3)c2nnc(-c3ccccc3)c(Cl)c12 [XIIIa] |  | 5.10 to 5.40
